From US10947242B2, “[1,2,4]triazolo[1,5and#8208;A]pyrimidine compounds as PDE2 inhibitors” (Janssen Pharmaceutica NV, priority 2016, dated 2021) come the findings set out here.

Molecules are shown by their SMILES. Where two headings read alike, the source gives them in different places.

Assay [1] concerns the target T1, Human recombinant PDE3A (hPDE3A) (Homo sapiens, UniProt Q14432).
T1 construct: purchased Scottish Biomedical; host or cells: Sf9 insect cells
As to the kind of experiment: In vitro assay PDE3A (SPA, 3H-cAMP hydrolysis).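 As to all read-outs here: the method names PDE3A and the table heading PDE3B.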 It counts as biochemical. The following applies: for IC50: hPDE3B pIC50, read-out: pIC50 (converted); for Emax: read-out: hPDE3B Emax, read-out: Emax. The procedure, abridged: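 Radiometric SPA measuring [3H]-cAMP hydrolysis (0.4 μM cAMP, 2.4 μCi/ml) over 60 min at room temperature, in Tris pH 7.8 buffer with MgCl2 and EGTA, 1% DMSO. Enzyme: recombinant human brain PDE3A expressed in Sf9 cells, used as partially purified lysate. Counts compared with enzyme-free blanks and vehicle controls.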

In assay [2] the target is T2, Human recombinant PDE10A (hPDE10A) (Homo sapiens, UniProt Q9Y233).
T2 construct: His tag (inferred from metal chelate purification); made in house; host or cells: Sf9 insect cells (baculovirus)
T2 sequence (Q9Y233 267-1055): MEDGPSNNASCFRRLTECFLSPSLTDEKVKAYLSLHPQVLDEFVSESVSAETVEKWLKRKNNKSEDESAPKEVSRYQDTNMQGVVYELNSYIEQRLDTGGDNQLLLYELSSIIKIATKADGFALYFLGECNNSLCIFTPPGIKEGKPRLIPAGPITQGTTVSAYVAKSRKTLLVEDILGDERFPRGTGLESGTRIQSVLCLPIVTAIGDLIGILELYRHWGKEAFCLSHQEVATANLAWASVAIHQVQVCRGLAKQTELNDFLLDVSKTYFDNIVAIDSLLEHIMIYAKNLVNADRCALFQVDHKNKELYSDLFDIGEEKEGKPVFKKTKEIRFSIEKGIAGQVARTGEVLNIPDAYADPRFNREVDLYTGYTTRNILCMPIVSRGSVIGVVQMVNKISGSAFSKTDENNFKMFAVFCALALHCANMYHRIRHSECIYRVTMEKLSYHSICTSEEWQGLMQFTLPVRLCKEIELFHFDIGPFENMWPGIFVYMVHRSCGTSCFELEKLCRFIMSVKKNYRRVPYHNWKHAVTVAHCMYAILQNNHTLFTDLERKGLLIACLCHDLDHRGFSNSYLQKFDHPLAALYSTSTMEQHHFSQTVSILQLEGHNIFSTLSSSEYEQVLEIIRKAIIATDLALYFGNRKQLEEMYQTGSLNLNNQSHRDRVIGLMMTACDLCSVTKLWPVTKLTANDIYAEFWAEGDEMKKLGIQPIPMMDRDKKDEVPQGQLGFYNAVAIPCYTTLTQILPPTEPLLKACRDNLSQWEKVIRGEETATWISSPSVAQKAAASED
The assay is described as follows: In vitro assay PDE10A, human clone (SPA, 3H-cAMP hydrolysis). It counts as biochemical. Particulars: human clone (h), default; for Emax: read-out: hPDE10A2 Emax; for IC50: read-out: hPDE10A2 pIC50 (converted). The procedure, abridged: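 Hydrolysis of 3H-cAMP (60 nM cAMP, 0.008 μCi tracer) proceeded for 60 min at room temperature, with the product detected by SPA bead scintillation counting. The enzyme was hPDE10A from baculovirus-infected Sf9 cells in Tris pH 7.8 buffer with MgCl2 and EGTA, and compounds were at 1% DMSO final. Blanks lacked enzyme.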

In the next assay the target is T3, PDE2A (Rattus norvegicus, UniProt Q01062).
T3 construct: Twenty μm-thick striatal sections were cut; from tissue; host or cells: rat brain, striatal sections
T3 sequence (Q01062 1-928): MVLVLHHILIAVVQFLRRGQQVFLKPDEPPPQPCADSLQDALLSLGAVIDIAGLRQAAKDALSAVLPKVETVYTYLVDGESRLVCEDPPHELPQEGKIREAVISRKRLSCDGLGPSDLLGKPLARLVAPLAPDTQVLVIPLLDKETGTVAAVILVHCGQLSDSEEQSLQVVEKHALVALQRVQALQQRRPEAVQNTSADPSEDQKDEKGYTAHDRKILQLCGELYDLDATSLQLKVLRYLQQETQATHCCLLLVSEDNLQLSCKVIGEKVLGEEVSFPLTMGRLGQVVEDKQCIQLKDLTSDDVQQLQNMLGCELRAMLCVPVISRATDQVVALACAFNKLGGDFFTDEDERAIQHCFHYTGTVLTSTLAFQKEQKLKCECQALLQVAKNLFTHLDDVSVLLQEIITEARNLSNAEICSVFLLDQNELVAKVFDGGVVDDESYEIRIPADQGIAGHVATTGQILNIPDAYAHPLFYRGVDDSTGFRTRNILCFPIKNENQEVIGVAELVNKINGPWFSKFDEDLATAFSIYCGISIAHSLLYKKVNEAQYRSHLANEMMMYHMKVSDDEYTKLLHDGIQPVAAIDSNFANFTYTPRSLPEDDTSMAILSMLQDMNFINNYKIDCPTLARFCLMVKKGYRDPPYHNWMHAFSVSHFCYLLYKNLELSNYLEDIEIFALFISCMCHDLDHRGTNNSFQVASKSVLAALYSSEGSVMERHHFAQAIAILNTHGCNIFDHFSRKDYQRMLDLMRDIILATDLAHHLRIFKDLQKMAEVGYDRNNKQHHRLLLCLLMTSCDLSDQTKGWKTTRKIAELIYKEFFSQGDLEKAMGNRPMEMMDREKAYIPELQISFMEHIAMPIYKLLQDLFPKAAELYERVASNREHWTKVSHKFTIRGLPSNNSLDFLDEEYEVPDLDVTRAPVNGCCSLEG
As to the kind of experiment: PDE2 occupancy by test compounds, ex-vivo autoradiography with [3H]B-17a. The following applies: for receptor occupancy at 10 mg/kg / PDE2 Occupancy at 10 mg/kg: percentage receptor occupancy, ex-vivo autoradiography, striatum; for ED50: read-out: PDE Occupancy ED50. The assay is classed as in vivo, Male Wistar rats.

In assay [3] the target is T4, Human recombinant PDE2A (hPDE2A) (Homo sapiens, UniProt O00408).
T4 construct: His tag (inferred from metal chelate purification); made in house; host or cells: Sf9 insect cells (baculovirus)
T4 sequence (O00408 whole entry): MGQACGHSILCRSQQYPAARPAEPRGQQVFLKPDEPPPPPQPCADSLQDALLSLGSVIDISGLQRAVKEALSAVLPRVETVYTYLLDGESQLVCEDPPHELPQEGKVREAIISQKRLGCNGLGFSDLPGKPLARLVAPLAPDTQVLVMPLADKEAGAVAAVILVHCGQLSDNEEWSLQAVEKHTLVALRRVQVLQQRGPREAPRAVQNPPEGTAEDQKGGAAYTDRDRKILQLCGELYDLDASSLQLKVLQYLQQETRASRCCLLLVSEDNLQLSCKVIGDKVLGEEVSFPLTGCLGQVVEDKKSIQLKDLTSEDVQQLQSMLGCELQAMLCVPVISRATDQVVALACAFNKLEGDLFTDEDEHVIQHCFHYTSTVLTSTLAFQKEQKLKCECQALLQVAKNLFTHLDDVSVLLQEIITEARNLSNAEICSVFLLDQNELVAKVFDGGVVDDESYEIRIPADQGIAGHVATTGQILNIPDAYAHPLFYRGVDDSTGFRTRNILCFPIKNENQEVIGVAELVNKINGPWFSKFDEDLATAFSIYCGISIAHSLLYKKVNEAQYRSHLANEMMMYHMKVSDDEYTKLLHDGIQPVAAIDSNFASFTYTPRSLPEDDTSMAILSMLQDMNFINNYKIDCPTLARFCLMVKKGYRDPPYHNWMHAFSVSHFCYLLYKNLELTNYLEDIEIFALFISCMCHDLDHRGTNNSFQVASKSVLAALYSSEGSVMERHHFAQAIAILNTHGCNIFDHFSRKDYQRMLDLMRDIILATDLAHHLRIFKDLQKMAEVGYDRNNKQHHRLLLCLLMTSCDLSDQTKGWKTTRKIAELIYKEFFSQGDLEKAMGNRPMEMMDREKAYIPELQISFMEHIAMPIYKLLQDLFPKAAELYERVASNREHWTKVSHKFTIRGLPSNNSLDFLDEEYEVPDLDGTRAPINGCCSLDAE
The assay is described as follows: In vitro assay PDE2A (SPA, 3H-cGMP hydrolysis). It counts as biochemical. Particulars: for IC50: read-out: hPDE2A pIC50 (converted); for Emax: read-out: hPDE2A Emax.

[4] abbreviates: human recombinant PDE2A, 10 μM cGMP substrate.

T1 sequence (Q14432 whole entry): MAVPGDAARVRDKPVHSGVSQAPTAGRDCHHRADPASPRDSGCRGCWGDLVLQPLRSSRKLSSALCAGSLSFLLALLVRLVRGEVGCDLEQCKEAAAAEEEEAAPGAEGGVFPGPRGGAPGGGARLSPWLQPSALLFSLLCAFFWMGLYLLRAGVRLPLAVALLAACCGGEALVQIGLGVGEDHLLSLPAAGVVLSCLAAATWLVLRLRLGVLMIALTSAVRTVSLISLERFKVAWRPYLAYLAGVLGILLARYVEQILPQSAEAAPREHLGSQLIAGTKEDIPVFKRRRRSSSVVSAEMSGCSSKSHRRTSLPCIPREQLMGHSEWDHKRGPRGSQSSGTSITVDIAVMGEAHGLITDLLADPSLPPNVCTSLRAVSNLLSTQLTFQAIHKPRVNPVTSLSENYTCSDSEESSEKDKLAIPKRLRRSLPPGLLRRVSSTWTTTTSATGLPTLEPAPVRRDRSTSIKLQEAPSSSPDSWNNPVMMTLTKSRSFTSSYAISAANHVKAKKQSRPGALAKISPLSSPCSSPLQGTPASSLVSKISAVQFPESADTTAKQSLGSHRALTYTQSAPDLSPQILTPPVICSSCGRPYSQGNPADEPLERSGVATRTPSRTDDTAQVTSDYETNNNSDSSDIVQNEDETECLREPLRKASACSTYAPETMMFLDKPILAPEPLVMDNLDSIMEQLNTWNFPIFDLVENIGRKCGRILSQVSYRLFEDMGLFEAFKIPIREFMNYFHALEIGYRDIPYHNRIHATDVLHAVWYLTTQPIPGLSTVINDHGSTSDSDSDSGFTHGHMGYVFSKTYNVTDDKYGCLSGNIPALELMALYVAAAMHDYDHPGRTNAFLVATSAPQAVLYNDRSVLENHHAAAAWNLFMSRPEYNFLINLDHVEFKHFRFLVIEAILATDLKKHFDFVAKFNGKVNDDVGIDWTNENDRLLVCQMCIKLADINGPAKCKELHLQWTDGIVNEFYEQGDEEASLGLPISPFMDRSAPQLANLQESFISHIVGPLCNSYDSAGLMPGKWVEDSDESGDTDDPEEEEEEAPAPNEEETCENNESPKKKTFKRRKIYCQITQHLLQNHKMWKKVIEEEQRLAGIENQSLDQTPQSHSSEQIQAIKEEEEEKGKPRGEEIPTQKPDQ

Turning to `Cc1cc([C@@H]2CN(C(=O)c3cc(Cl)ncc3C)CC[C@H]2C)n2ncnc2n1` [Compound 18], the IC50 in assay [1] was 6460 nM; in assay [2], 195 nM; in assay [3] (setting [4]) it was 4.68 nM; in assay [3] it was 4.68 nM. Also, the Emax stood at 65% in assay [1], 97% in assay [2], 100% in assay [3] (human recombinant PDE2A) and 100% in assay [3]. Also, the receptor occupancy at 10 mg/kg at PDE2A (po, route PO (oral)) came to 4%.

Turning to `Cc1cc(C(=O)N2CC[C@@H](C)[C@](F)(c3cc(C(F)F)nc4ncnn34)C2)cc(C2CC2)n1` [Compound 24b], the “hPDE3B Emax” value in assay [1] was 28. Further, the “hPDE10A2 Emax” value in assay [2] came out at 60. Moreover, the “hPDE10A2 pIC50” value in assay [2] came out at 5.13. The “PDE2 Occupancy at 10 mg/kg” value on PDE2A (route SC (subcutaneous)) worked out at 0. The “hPDE2A Emax” value in assay [3] and in assay [3] (human recombinant PDE2A) was 98 each time. Besides, the “hPDE2A pIC50” value in assay [3] and in assay [3] (setting [4]) was 8.19 throughout.

In the case of `O=C(c1ccc2ncsc2c1)N1[C@H]2CC[C@@H]1[C@H](c1cc(C(F)F)nc3ncnn13)CC2` [Compound 25b], the “hPDE3B Emax” value in assay [1] stood at 37. In assay [2], the “hPDE10A2 Emax” value was 28 and the “hPDE10A2 pIC50” value was <5. On PDE2A (route PO (oral)), the “PDE2 Occupancy at 10 mg/kg” value is listed as −9. Moreover, in assay [3], the “hPDE2A Emax” value worked out at 92 and the “hPDE2A pIC50” value was determined as 5.96. Also, the “hPDE2A Emax” value in assay [3] (human recombinant PDE2A) was found to be 92. In addition, the “hPDE2A pIC50” value in assay [3] (setting [4]) amounted to 5.96.

For the molecule `Cc1cnc(Cl)cc1C(=O)N1CC[C@@H](C)[C@H](c2cc(C(F)F)nc3ncnn23)C1` [Compound 27], the IC50 was > 10000 nM in assay [1], 1100 nM in assay [2], 0.912 nM in assay [3] (setting [4]) and 0.912 nM in assay [3]. Moreover, the maximum response (Emax) in assay [1] is 37%; in assay [2] it was 88%; in assay [3] (human recombinant PDE2A) it was 100%; in assay [3], 100%. Further, the receptor occupancy at 10 mg/kg on PDE2A (po, route PO (oral)) is 34%.

On to `Cc1cc(C(=O)N2C3CCC2[C@@H](c2cc(C(F)F)nc4ncnn24)CC3)cc(C2CC2)n1` (some centres unmarked) [Compound 28], for which the IC50 in assay [1] is > 10000 nM; in assay [2] it was 447 nM; in assay [3] (setting [4]), 0.955 nM; in assay [3], 0.955 nM. Besides, the Emax in assay [1] worked out at 17%; in assay [2] it was 95%; in assay [3] (human recombinant PDE2A), 101%; in assay [3], 101%. The receptor occupancy at 10 mg/kg at PDE2A (route SC (subcutaneous)) amounted to 49%. Moreover, on PDE2A (po), the ED50 came to 25 mg/kg.

Regarding `Cc1cc(C(=O)N2[C@H]3CC[C@@H]2[C@H](c2cc(C(F)F)nc4ncnn24)CC3)cc(C)n1` [Compound 30], the IC50 in assay [1] is > 10000 nM; in assay [2], > 10000 nM; in assay [3] (setting [4]), 3550 nM; in assay [3] it was 3550 nM. Moreover, the Emax in assay [1] amounted to 8%; in assay [2] it was 32%; in assay [3] (human recombinant PDE2A) it was 77%; in assay [3] it was 77%. In addition, on PDE2A (route SC (subcutaneous)), the receptor occupancy at 10 mg/kg is 0%.

In the case of `Cc1cc(C(=O)N2CC[C@@H](C)[C@H](c3cc(C(F)F)nc4ncnn34)C2)c(C)cn1` [Compound 32], the IC50 in assay [1] is > 10000 nM; in assay [2] it was 1450 nM; in assay [3] (setting [4]) it was 3.47 nM; in assay [3] it was 3.47 nM. The Emax in assay [1] was 31%; in assay [2], 81%; in assay [3] (human recombinant PDE2A), 100%; in assay [3], 100%. Besides, the receptor occupancy at 10 mg/kg at PDE2A (po, route PO (oral)) was -6%.

`C[C@@H]1CCN(C(=O)c2ccc3ncsc3c2)C[C@@]1(F)c1cc(C(F)F)nc2ncnn12` [Compound 33]: the IC50 is > 10000 nM in assay [1], 6170 nM in assay [2], 14.8 nM in assay [3] (setting [4]) and 14.8 nM in assay [3]. Further, the Emax is 25% in assay [1], 67% in assay [2], 99% in assay [3] (human recombinant PDE2A) and 99% in assay [3]. Besides, the receptor occupancy at 10 mg/kg on PDE2A (po, route PO (oral)) is -7%.

As to `COc1cc(C(=O)N2CC[C@@H](C)[C@H](c3cc(C(F)F)nc4ncnn34)C2)c(F)cn1` [Compound 36], the IC50 is 3980 nM in assay [1], 468 nM in assay [2] and 2.75 nM in assay [3]. The maximal response (Emax) in assay [1] amounted to 64%; in assay [2], 93%; in assay [3], 100%. In addition, the receptor occupancy at 10 mg/kg on PDE2A (po, route PO (oral)) is 32%. Further, the 50% effective dose (ED50) on PDE2A (route PO (oral), drug dose producing 50% receptor occupancy) was 45.2 mg/kg.

`COc1cc(C(=O)N2CC[C@@H](C)[C@H](c3cc(C)nc4ncnn34)C2)c(C(F)(F)F)cn1` [Compound 37]: the IC50 in assay [1] is 8910 nM; in assay [2], 427 nM; in assay [3], 17.4 nM. The Emax is 52% in assay [1], 93% in assay [2] and 100% in assay [3]. At PDE2A (po, route PO (oral)), the receptor occupancy at 10 mg/kg was -13%.

For `COc1nc(N)ncc1C(=O)N1CC[C@@H](C)[C@H](c2cc(C(F)F)nc3ncnn23)C1` [Compound 38], the IC50 was > 10000 nM in assay [1], 2290 nM in assay [2], 6.17 nM in assay [3] (setting [4]) and 6.17 nM in assay [3]. Besides, the Emax in assay [1] amounted to 43%; in assay [2] it was 80%; in assay [3] (human recombinant PDE2A) it was 100%; in assay [3] it was 100%. At PDE2A (po, route PO (oral)), the receptor occupancy at 10 mg/kg stood at 1%.

With `C[C@@H]1CCN(C(=O)c2cc(Cl)cnc2C(F)(F)F)C[C@H]1c1cc(C(F)F)nc2ncnn12` [Compound 39], the IC50 in assay [1] is > 10000 nM; in assay [2] it was 3090 nM; in assay [3] (setting [4]), 8.32 nM; in assay [3] it was 8.32 nM. Besides, the maximal response (Emax) in assay [1] was found to be 16%; in assay [2], 75%; in assay [3] (human recombinant PDE2A) it was 98%; in assay [3], 98%. In addition, the receptor occupancy at 10 mg/kg at PDE2A (po, route PO (oral)) was -8%.

Turning to `Cc1cc(C(=O)N2CC[C@@H](C)[C@H](c3cc(C(F)F)nc4ncnn34)C2)c(C(F)(F)F)cn1` [Compound 41], the IC50 is > 10000 nM in assay [1], 4170 nM in assay [2], 13.8 nM in assay [3] (setting [4]) and 13.8 nM in assay [3]. In addition, the Emax in assay [1] was found to be 17%; in assay [2], 72%; in assay [3] (human recombinant PDE2A) it was 99%; in assay [3], 99%. For the same molecule, on PDE2A (po, route PO (oral)), the receptor occupancy at 10 mg/kg stood at 8%.

`C[C@@H]1CCN(C(=O)c2ccnc(Cl)c2)C[C@H]1c1cc(C(F)F)nc2ncnn12` [Compound 42]: the IC50 is > 10000 nM in assay [1], 316 nM in assay [2], 1.15 nM in assay [3] (setting [4]) and 1.15 nM in assay [3]. For the same molecule, the maximal response (Emax) in assay [1] amounted to 48%; in assay [2], 95%; in assay [3] (human recombinant PDE2A), 100%; in assay [3] it was 100%. Also, the receptor occupancy at 10 mg/kg on PDE2A (po, route PO (oral)) stood at 54%.

Take `C[C@@H]1CCN(C(=O)c2cc(Cl)ncc2Cl)C[C@H]1c1cc(C(F)F)nc2ncnn12` [Compound 43]: the IC50 in assay [1] was > 10000 nM; in assay [2], 1320 nM; in assay [3] (setting [4]), 5.01 nM; in assay [3], 5.01 nM. For the same molecule, the maximal response (Emax) in assay [1] is 29%; in assay [2] it was 88%; in assay [3] (human recombinant PDE2A), 99%; in assay [3], 99%. Moreover, the receptor occupancy at 10 mg/kg at PDE2A (po, route PO (oral)) is 2%.

The Emax is the size of the effect at its maximum, as opposed to the concentration needed. A word on the ED50: it is the dose that gives a 50% effect, or the effect in half of the subjects.
